The results in this text go back to patent US6528535B2, “Bicyclic inhibitors of protein farnesyl transferase” (Warner-Lambert Company, priority 1997, dated 2003).

In data set [1] the target is T1, SF9 affinity purified rat FPT (Rattus norvegicus, UniProt Q02293+Q04631).
T1 construct: made in house; host or cells: Sf9 insect cells
Put plainly: PFT (farnesyl protein transferase) inhibitory activity, radiolabeled farnesyl pyrophosphate / biotinyl peptide bead assay. It counts as biochemical. The conditions noted are these: average of two tests unless n is given in parentheses; read-out: FTase, IC50. As for the experimental part:
The protein:farnesyl transferase (PFT) or farnesyl protein transferase (FPT) inhibitory activity of compounds of the present invention were assayed in HEPES buffer (pH 7.4) containing 5 mM potassium phosphate and 20 μM ZnCl2. The solution also contained 5 mM DTT (dithiothreitol), 5 mM MgCl2, and 0.1% PEG 8000. Assays were performed in 96 well plates (Wallec) and employed solutions composed of varying concentrations of a compound of the present invention in 10% DMSO (dimethylsulfoxide). Upon addition of both substrates, radiolabeled farnesyl pyrophosphate ([1^3H], specific activity 15-30 Ci/mmol, final concentration 134 nM) and (biotinyl)-Ahe-Thr-Lys-Cys-Val-Ile-Met ([3aS[3a alpha, 4 beta, 6a alpha]-hexahydro-2-oxo-1H-thieno[3,4-d]imidazole-5-pentanoic acid]-[7-aminoheptanoic acid]-Thr-Lys-Cys-Val-Ile-Met) (Ahe is 7-aminoheptanoic acid, Thr is threonine, Lys is lysine, Cys is cysteine, Val is valine, Ile is isoleucine, and Met is methionine) (final concentration 0.2 μM), the enzyme reaction was started by addition of SF9 affinity purified rat FPT. After incubation at 30° C. for 30 minutes, the reaction was terminated by diluting the reaction 2.5-fold with a stop buffer containing 1.5 M magnesium acetate, 0.2 M H3PO4, 0.5% BSA (bovine serum albumin), and strepavidin beads (Amersham) at a concentration of 1.3 mg/mL. After allowing the plate to settle for 30 minutes at room temperature, radioactivity was quantitated on a microbeta counter (Model 1450, Wallec). The assay was also carried out without 5 mM potassium phosphate.

As a reminder, the melting point is the temperature of the solid-liquid transition. One may read the IC50 as the midpoint of a concentration-inhibition curve. As to `CSc1ccc(C=C2CCc3cc(OCCc4c[nH]cn4)ccc3C2=O)s1.Cl` [Example 32, 6-[2-(1H-Imidazole-4-yl)-ethoxy]-2-(5-methylsulfanyl-thiophen-2-ylmethylene)-3,4-dihydro-2H-naphthalen-1-one, monohydrochloride], the melting point was in the range of 168 to 169 °C. Besides, the IC50 in data set [1] turned out to be 9.1 µM.

`CCN(CC)C(=O)c1ccc(C=C2CCc3cc(OCCc4c[nH]cn4)ccc3C2=O)cc1.Cl` [Example 34, N,N-Diethyl-4-{6-[2-(1H-imidazole-4-yl)-ethoxy]-1-oxo-3,4-dihydro-1H-naphthalen-2-ylidenemethyl}-benzamide, monohydrochloride] showed a melting point of 211 to 213 °C. Further, the 50% inhibitory concentration (IC50) in data set [1] is 12.2 µM.

`Cc1ccc(C=C2CCc3cc(OCCc4c[nH]cn4)ccc3C2=O)s1` [Example 37, 6-[2-(1H-Imidazole-4-yl)-ethoxy]-2-(5-methyl-thiophen-2-ylmethylene)-3,4-dihydro-2H-naphthalen-1-one] displayed a melting point of 69 to 70 °C. Also, the IC50 in data set [1] worked out at 0.49 µM.

Turning to `Cc1ccsc1C=C1CCc2cc(OCCc3c[nH]cn3)ccc2C1=O` [Example 39, 6-[2-(1H-Imidazole-4-yl)-ethoxy]-2-(3-methyl-thiophen-2-ylmethylene)-3,4-dihydro-2H-naphthalen-1-one], the melting point was in the range of 191 to 193 °C. Further, the IC50 in data set [1] was determined as 3.1 µM.

Compound `O=C1C(=Cc2ccco2)CCc2cc(OCCc3c[nH]cn3)ccc21` [Example 41, 2-Furan-2-ylmethylene-6-[2-(1H-imidazole-4-yl)-ethoxy]-3,4-dihydro-2H-naphthalen-1-one] displayed a melting point of 57 to 60 °C. Also, the IC50 in data set [1] is 0.19 µM.

With `O=C1C(=Cc2ccc(Br)cc2)CCc2cc(OCCc3c[nH]cn3)ccc21` [Example 42, 2-(4-Bromo-benzylidene)-6-[2-(1H-imidazole-4-yl)-ethoxy]-3,4-dihydro-2H-naphthalen-1-one], the melting point was in the range of 176 to 178 °C. Moreover, the IC50 in data set [1] is 5.9 µM.

Turning to `Cl.O=C1CCCc2cc(OCCCc3c[nH]cn3)ccc21` [Example 43, 6-[3-(1H-Imidazole-4-yl)-propoxy]-3,4-dihydro-2H-naphthalen-1-one, hydrochloride], the melting point was in the range of 153 to 155 °C. Also, the IC50 in data set [1] turned out to be 4.4 µM.

Turning to `O=C1/C(=C/C=C/c2ccccc2)CCc2cc(OCCn3ccnc3)ccc21` [Example 44, (E,E)-6-(2-Imidazol-1-yl-ethoxy)-2-(3-phenyl-allylidene)-3,4-dihydro-2H-naphthalen-1-one], the melting point is 198 to 200 °C. Moreover, in data set [1], the IC50 stood at 3.6 µM.

Take `Cc1cc2c(cc1OCCn1ccnc1)CC/C(=C\c1cccs1)C2=O` [Example 46, 6-[2-(1H-1-Imidazolyl)ethoxy]-7-methyl-2-[(E)-1-(2-thienyl)methylidene]-1,2,3,4-tetrahydro-1-naphthalenone]: the melting point is 150 to 151 °C. Moreover, the half-maximal inhibitory concentration (IC50) in data set [1] was 15.4 µM.

On to `Cc1c(OCCn2ccnc2)ccc2c1CCCC2=O` [Example 47, 6-[2-(1H-1-Imidazolyl)ethoxy]-5-methyl-1,2,3,4-tetrahydro-1-naphthalenone], for which the melting point was 110 to 112 °C. Also, the half-inhibitory concentration (IC50) in data set [1] amounted to 1.3 µM.

In turn, `Cc1c(OCCn2ccnc2)ccc2c1CC/C(=C\c1cccs1)C2=O` [Example 48, 6-[2-(1H-1-Imidazolyl)ethoxy]-5-methyl-2-[(E)-1-(2-thienyl)methylidene]-1,2,3,4-tetrahydro-1-naphthalenone] came in with a melting point of 182 to 184 °C. For the same compound, the IC50 in data set [1] was 0.4 µM.

Compound `O=c1ccoc2cc(OCCn3ccnc3)ccc12` [Example 50, 7-[2-(1H-1-Imidazolyl)ethoxy]-4H-4-chromenone] returned a melting point of 131 to 133 °C. In addition, in data set [1], the IC50 stood at 2.6 µM.

`O=C1CCOc2cc(OCCn3ccnc3)ccc21` [Example 51, 7-[2-(1H-1-Imidazolyl)ethoxy]-4-chromanone] registered a melting point of 128 to 130 °C. In addition, the 50% inhibitory concentration (IC50) in data set [1] was found to be 4.4 µM.
